In brackets after ≈: the same amount, converted by molar mass. Activity calls are given as the source filed them. The rule behind the calls is not given here.

Experiment [1] concerns Human immunodeficiency virus 1. In words: Antiviral activity against HIV1 in human CEM-SS cells assessed as cytoprotection against virus-induced cytopathogenicity. Type of experiment: functional.
For experiment [2], the system named is Human immunodeficiency virus 1. In words: Antiviral activity against HIV1 in human CEM-SS cells assessed inhibition of virus-induced cytopathic effects. Type of experiment: functional, organism-based.
Setting [3] is: Human immunodeficiency virus 1, CEM-SS.

For the compound `CCOC(=O)NN(OC(=O)C[C@H](c1ccccc1)[C@@]12C(=O)[C@@](CC=C(C)C)(C[C@@H](CC=C(C)C)C1(C)C)C(=O)C(C(=O)CC(C)C)=C2O)C(=O)OCC`, the result in experiment [1] and in experiment [2] was inactive.

Turning to `CC(C)=CC[C@@H]1C[C@@]2(CC=C(C)C)C(=O)C(C(=O)CC(C)C)=C(O)[C@]([C@H](CC(=O)O)c3ccccc3)(C2=O)C1(C)C` [LAXIFLORANONE], the Activity in experiment [1] came out at 80%. For the same compound, in experiment [2] (setting [3]), the EC50 came to 0.62 µg/mL (≈ 1.1 µM) and the IC50 turned out to be 6.6 µg/mL (≈ 11.7 µM).

Source of the values: ChEMBL document CHEMBL1144098, “Laxifloranone, a new phloroglucinol derivative from Marila laxiflora” (J Nat Prod, 1999).
